Measured values reported in ChEMBL document CHEMBL4706699, “Novel (R)-6,6a,7,8,9,10-hexahydro-5H-pyrazino[1,2-a][1,n]naphthyridines as potent and selective agonists of the 5-HT receptor” (Bioorg Med Chem Lett, 2021).

Legend:
[1] = biological target: T1, 5-hydroxytryptamine receptor 2C (Homo sapiens, UniProt P28335); experiment: Displacement of [125I]-DOI from recombinant human 5HT2CR transfected in human HEK293 cells incubated for 45 mins by radioligand binding assay; assay type: cell-based
T1 sequence (P28335 whole entry): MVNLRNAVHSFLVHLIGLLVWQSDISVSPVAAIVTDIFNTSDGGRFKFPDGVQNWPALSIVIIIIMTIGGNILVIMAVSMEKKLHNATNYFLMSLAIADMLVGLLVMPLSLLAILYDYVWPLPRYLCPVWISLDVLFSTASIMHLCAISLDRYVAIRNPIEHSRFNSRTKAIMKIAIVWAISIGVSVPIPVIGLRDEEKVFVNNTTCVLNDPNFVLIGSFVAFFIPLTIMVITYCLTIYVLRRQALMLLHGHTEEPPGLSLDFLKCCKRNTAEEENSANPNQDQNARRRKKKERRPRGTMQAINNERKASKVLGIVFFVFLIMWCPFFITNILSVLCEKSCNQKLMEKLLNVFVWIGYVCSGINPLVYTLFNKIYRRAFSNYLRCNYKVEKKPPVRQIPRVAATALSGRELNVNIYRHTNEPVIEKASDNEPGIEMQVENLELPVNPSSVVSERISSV

[2] = Metabolic stability in human liver microsomes assessed as parent compound remaining at 1 uM incubated for 45 mins; assay type: ADME, Microsome; conditions: read-out: Stabilty
[3] = biological target: T2, 5-hydroxytryptamine receptor 2A (Homo sapiens, UniProt P28223); experiment: Displacement of [3H]-DOI from recombinant human 5HT2AR transfected in human HEK293 cells incubated for 45 mins by radioligand binding assay; assay type: cell-based
[4] = biological target: T1, 5-hydroxytryptamine receptor 2C; experiment: Agonist activity at 5-HT2CR (unknown origin) transfected in human HEK293 cells by IP3 accumulation assay; assay type: functional, cell-based
[5] = biological target: T2, 5-hydroxytryptamine receptor 2A; experiment: Agonist activity at 5-HT2AR (unknown origin) transfected in human HEK293 cells by IP3 accumulation assay; assay type: cell-based
[6] = biological target: T3, 5-hydroxytryptamine receptor 2C (Homo sapiens) (UniProt P28335); experiment: Agonist activity at 5-HT2CR (unknown origin) transfected in human HEK293 cells at 10 uM by IP3 accumulation assay relative to control; assay type: functional, cell-based; conditions: filed as agonist
T3 sequence (whole entry): T1 sequence (P28335 whole entry)

[7] = Metabolic stability in rat liver microsomes assessed as parent compound remaining at 1 uM incubated for 45 mins; assay type: ADME, Microsome; conditions: read-out: Stabilty
[8] = biological target: T4, 5-hydroxytryptamine receptor 2B (Homo sapiens, UniProt P41595); experiment: Agonist activity at 5-HT2BR (unknown origin) transfected in human HEK293 cells by IP3 accumulation assay; assay type: cell-based
5-HT2A receptor = 5-HT2A receptor (Homo sapiens, UniProt P28223); experiment: Agonist activity at 5-HT2AR (unknown origin) transfected in human HEK293 cells at 10 uM by IP3 accumulation assay relative to control; assay type: cell-based; conditions: HEK293 cells transfected with 5-HT2AR
[9] = biological target: T4, 5-hydroxytryptamine receptor 2B; experiment: Displacement of [3H]-[…] from recombinant human 5HT2BR transfected in human HEK293 cells incubated for 45 mins by radioligand binding assay; assay type: cell-based
5-HT2B receptor = 5-HT2B receptor (Homo sapiens, UniProt P41595); experiment: Agonist activity at 5-HT2BR (unknown origin) transfected in human HEK293 cells at 10 uM by IP3 accumulation assay relative to control; assay type: cell-based; conditions: HEK293 cells transfected with 5-HT2BR
[10] = Half life in po dosed Sprague-Dawley rat; assay type: ADME, organism-based; conditions: in vivo
[11] = Oral bioavailability in Sprague-Dawley rat; assay type: ADME, organism-based; conditions: in vivo
Rattus norvegicus = experiment: (§1) In vivo agonist activity at 5HT2CR in po dosed Sprague-Dawley rat assessed as reduction in food intake measured at 1 hr; assay type: functional
[12] = as §1; assay type: functional
[13] = Ratio of unbound drug level in po dosed Sprague-Dawley rat brain to plasma measured after 2 hrs; assay type: ADME, organism-based; conditions: read-out: K(p,uu,brain)

Chain of 5-HT2A receptor (P28223 whole entry): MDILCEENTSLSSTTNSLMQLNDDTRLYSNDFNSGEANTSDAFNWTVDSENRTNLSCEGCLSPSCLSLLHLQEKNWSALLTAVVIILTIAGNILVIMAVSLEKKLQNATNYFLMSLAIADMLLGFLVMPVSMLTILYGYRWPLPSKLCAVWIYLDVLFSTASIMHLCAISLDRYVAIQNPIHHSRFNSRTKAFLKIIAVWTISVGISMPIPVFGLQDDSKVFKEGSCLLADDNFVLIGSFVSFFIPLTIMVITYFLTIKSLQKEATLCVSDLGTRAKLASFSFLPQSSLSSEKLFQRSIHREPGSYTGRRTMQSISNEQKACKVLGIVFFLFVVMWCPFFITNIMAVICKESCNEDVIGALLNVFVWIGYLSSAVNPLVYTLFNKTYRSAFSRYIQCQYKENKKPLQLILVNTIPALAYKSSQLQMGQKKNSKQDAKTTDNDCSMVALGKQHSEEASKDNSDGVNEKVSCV
T2 sequence (P28223 whole entry): as above
T4 sequence (P41595 whole entry): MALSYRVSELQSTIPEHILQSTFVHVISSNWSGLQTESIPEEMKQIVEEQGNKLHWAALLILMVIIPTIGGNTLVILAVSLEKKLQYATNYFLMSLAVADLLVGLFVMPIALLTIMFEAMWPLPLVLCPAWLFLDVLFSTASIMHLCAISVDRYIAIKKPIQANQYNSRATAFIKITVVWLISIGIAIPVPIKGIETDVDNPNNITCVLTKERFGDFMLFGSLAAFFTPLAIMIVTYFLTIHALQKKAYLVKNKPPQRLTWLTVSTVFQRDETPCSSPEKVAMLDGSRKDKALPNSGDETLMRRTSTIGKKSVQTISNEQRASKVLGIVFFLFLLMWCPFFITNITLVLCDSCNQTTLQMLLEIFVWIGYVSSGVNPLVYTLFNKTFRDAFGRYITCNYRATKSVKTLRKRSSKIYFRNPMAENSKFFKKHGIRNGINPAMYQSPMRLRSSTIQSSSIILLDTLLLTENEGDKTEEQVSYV
Chain of 5-HT2B receptor (P41595 whole entry): as above

SMILES	Ki [1]	remaining at 0.75 h, 1 µM [2]	Ki [3]	EC50 [4]	EC50 [5]	Emax [6]	remaining at 0.75 h, 1 µM [7]	EC50 [8]	Emax at 10 µM (5-HT2A receptor)	Ki [9]	Emax at 10 µM (5-HT2B receptor)	half-life [10]	bioavailability [11]	Activity (Rattus norvegicus)	ED50 [12]	Kp uu at 2 h [13]
FC(F)(F)CCc1cccc2c1CC[C@@H]1CNCCN21	2 nM	81%	20 nM	3.16 nM	1000 nM	95%	23%	3160 nM	114%	100 nM	48%					
c1ccc(Cc2cncc3c2CC[C@@H]2CNCCN32)cc1	0.501 nM			0.631 nM		110%		> 10000 nM		251 nM						
CC(C)Cc1ccnc2c1CC[C@@H]1CNCCN21	0.631 nM	14%		0.398 nM		102%	24%	316 nM		31.6 nM	22%					
c1cnc2c(c1)CC[C@@H]1CNCCN21				100 nM	> 10000 nM	92%		63.1 nM			19%					
COCc1ccnc2c1CC[C@@H]1CNCCN21						109%					38%					
c1cc2c(cn1)N1CCNC[C@H]1CC2				316 nM	> 10000 nM	98%		794 nM			28%					
c1cc(C2CC2)c2c(n1)N1CCNC[C@H]1CC2				6.31 nM	398 nM	99%		15.8 nM	117%		34%					
c1ccc(Cc2ccnc3c2CC[C@@H]2CNCCN32)cc1	0.251 nM		1.26 nM	0.126 nM	50.1 nM	107%			114%		25%					
FC(F)(F)CCc1ccnc2c1CC[C@@H]1CNCCN21		100%				97%	80%		134%		31%	2.9 h	54%	Dose-dependent effect	0.7 mg/kg	1.3
CCCc1cccc2c1CC[C@@H]1CNCCN21	0.316 nM	13%	5.01 nM	0.2 nM	158 nM	107%	38%	100 nM	74%	12.6 nM	82%					
CCCc1cncc2c1CC[C@@H]1CNCCN21		5%	39.8 nM			106%	14%									
CCCc1ccnc2c1CC[C@@H]1CNCCN21	0.158 nM	29%	6.31 nM	0.0631 nM		99%	27%				54%					
c1cc(CC2CCC2)c2c(n1)N1CCNC[C@H]1CC2		78%				108%	67%				17%					
c1cc2c(c(CC3CCC3)n1)CC[C@@H]1CNCCN21				> 1000 nM	> 10000 nM			> 10000 nM								
c1cc2c(cn1)CC[C@@H]1CNCCN21				> 10000 nM	> 10000 nM			> 10000 nM								
Cc1ccnc2c1CC[C@@H]1CNCCN21						102%					52%					
Clc1ccnc2c1CC[C@@H]1CNCCN21				5.01 nM	1260 nM	99%		50.1 nM	90%		62%					
